From ChEMBL document CHEMBL3352674, “Pyrazolsulfonamide agonists of oxytocin receptor” (ACS Med Chem Lett, 2014)

Target: T1, Oxytocin receptor (Homo sapiens, UniProt P30559)
T1 sequence (P30559 whole entry): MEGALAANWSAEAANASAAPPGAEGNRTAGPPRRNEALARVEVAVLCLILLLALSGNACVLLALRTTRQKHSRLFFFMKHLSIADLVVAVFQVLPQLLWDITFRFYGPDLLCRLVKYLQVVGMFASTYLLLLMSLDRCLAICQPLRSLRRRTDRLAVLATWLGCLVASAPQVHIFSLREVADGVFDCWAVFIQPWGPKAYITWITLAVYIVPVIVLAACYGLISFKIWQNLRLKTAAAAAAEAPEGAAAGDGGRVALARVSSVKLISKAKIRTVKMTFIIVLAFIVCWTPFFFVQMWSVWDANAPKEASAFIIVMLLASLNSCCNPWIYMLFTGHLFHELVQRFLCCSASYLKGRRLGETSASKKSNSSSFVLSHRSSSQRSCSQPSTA
Experiment: Agonist activity at human oxytocin receptor expressed CHO cells assessed as calcium flux by FLIPR method
Type: functional, cell-based

Compound | EC50 [nM]
O=S(=O)(Nc1ccnn1-c1ncc(C(F)(F)F)cn1)c1ccc(C(F)(F)F)cc1 | 1570
O=S(=O)(Nc1ccnn1-c1ccccn1)c1ccc(Cl)cc1F | 19
